Measurements from patent publication US20210290732A1, “GLP-1R and GCGR Agonists, Formulations, and Methods of Use” (Spitfire Pharma LLC, priority 2020, published 2021).
Read-outs that look alike come from different tables or passages of the source.

Assays:
human GLP-1R = target: T1, human GLP-1R (Homo sapiens, UniProt P43220); assay: cAMP receptor activation assay, human GLP-1R cloned into CHO cells (DiscoverX LeadHunter / cAMP Hunter); type: cell-based
T1 construct: host or cells: CHO-K1
Method: (§1) Cellular assays were carried out using standard cellular assays (DiscoveRx, LeadHunter assays) using readout of cAMP stimulation or arrestin activation. Compounds were weighed precisely in an amount of approximately 1 mg and shipped to DiscoverX (Fremont, Calif.) for dilution and assay. […] Assays were carried out in the presence of 0.1% ovalbumin. […] Use of 0.1% ovalbumin can avoid this problem.
(§2) Assays were carried out in the presence of 0.1% ovalbumin. […] Use of 0.1% ovalbumin can avoid this problem.
(§3) Receptor activation assays were performed at DiscoverX laboratories (Fremont, Calif.) using human GLP-1R and GCGR cloned into Chinese Hamster Ovary (CHO) cells (LeadHunter Discovery Services; assay product 86-0007D cAMP Hunter™ using huGLP1R and huGCGR; whole cell cAMP accumulation assays; cell lines used were cAMP Hunter™ CHO-K1 GCGR Gs Cell Line, catalog 95-0042C2 and cAMP Hunter™ CHO-K1 GLP1 Gs Cell Line, catalog 95-0062C2; readout of accumulated cAMP was made using readout HitHunter cAMP XS+ assay). Cell lines are maintained at DiscoverX and were incubated with test agents for 30 m at 37° C. for accumulation of cAMP. […] Results described herein are from single assays performed on cells in duplicate and data were replotted in Prism 5 to provide pEC50 (SE) data.
(§4) In vitro data are presented as pEC50 (SE) determined in Prism 5 by nonlinear regression analysis of the raw fluorescence data normalized by corresponding response to internal standards (see Supporting Information for data plots).

GCGR = GCGR (Homo sapiens, UniProt P47871); assay: cAMP receptor activation assay, human GCGR cloned into CHO cells (DiscoverX LeadHunter / cAMP Hunter); type: cell-based; design: host or cells: CHO-K1
Method: as §1, §2, §3, §4

[1] = ratio of EC50 in 0.1% BSA and 0.1% ovalbumin

GCGR, sequence (P47871 26-477): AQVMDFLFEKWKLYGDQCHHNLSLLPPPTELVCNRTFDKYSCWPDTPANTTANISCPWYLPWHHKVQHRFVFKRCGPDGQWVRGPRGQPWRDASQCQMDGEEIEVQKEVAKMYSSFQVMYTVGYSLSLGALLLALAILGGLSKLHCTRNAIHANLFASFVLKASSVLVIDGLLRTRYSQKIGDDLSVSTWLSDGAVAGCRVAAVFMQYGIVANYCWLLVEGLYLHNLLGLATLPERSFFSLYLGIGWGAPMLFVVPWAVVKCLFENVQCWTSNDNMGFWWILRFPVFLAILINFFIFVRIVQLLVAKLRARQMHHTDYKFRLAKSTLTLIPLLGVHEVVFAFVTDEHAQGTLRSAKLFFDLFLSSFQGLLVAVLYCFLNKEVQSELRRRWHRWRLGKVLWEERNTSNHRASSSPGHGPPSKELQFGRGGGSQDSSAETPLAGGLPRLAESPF
T1 sequence (P43220 24-463): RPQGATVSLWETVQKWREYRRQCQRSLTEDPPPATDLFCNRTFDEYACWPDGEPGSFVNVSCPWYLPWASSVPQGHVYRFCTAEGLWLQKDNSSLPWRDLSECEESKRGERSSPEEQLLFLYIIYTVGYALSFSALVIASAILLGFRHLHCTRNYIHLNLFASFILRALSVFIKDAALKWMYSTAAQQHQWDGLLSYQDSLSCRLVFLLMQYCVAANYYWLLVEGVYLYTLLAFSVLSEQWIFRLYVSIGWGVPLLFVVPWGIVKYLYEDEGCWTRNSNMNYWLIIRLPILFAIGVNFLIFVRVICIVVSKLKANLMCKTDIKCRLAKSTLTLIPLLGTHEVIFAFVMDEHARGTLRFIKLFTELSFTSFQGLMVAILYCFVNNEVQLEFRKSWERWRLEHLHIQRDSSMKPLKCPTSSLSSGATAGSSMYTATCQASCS

CCCCCCCCCCCCCCCCO[C@@H]1O[C@H](CO[C@H]2O[C@H](C(=O)NCCCC[C@@H]3NC(=O)[C@@H](NC(=O)[C@H](CC(=O)O)NC(=O)[C@H](CC(C)C)NC(=O)[C@H](Cc4ccc(O)cc4)NC(=O)[C@H](CCCCN)NC(=O)[C@H](CO)NC(=O)[C@H](Cc4ccc(O)cc4)NC(=O)[C@H](CC(=O)O)NC(=O)[C@H](CO)NC(=O)[C@@H](NC(=O)[C@H](Cc4ccccc4)NC(=O)[C@@H](NC(=O)CNC(=O)[C@H](CCC(N)=O)NC(=O)C(C)(C)NC(=O)[C@@H](N)Cc4c[nH]cn4)[C@@H](C)O)[C@@H](C)O)CCC(=O)NCCCC[C@@H](C(=O)N[C@@H](CCC(=O)O)C(=O)N[C@@H](Cc4ccccc4)C(=O)N[C@H](C(=O)N[C@@H](CCC(N)=O)C(=O)N[C@@H](Cc4c[nH]c5ccccc45)C(=O)N[C@@H](CC(C)C)C(=O)N[C@@H](CC(C)C)C(=O)N[C@@H](CCC(N)=O)C(=O)N[C@H](C(N)=O)[C@@H](C)O)[C@@H](C)CC)NC(=O)[C@H](C)NC(=O)[C@H](C)NC3=O)[C@H](O)[C@H](O)[C@H]2O)[C@@H](O)[C@H](O)[C@H]1O [EU-A1588]
Ovalbumin vs. BSA - fold improv/worsen GLP-1 R (human GLP-1R; [1]): 5 fold | Ovalbumin vs. BSA - fold improv/worsen GCG R (GCGR; [1]): 6 fold

CC[C@H](C)[C@H](NC(=O)[C@H](Cc1ccccc1)NC(=O)[C@H](CCC(=O)O)NC(=O)[C@@H]1CCCCNC(=O)CC[C@H](NC(=O)[C@H](CC(=O)O)NC(=O)[C@H](CC(C)C)NC(=O)[C@H](Cc2ccc(O)cc2)NC(=O)[C@H](CCCCN)NC(=O)[C@H](CO)NC(=O)[C@H](Cc2ccc(O)cc2)NC(=O)[C@H](CC(=O)O)NC(=O)[C@H](CO)NC(=O)[C@@H](NC(=O)[C@H](Cc2ccccc2)NC(=O)[C@@H](NC(=O)CNC(=O)[C@H](CCC(N)=O)NC(=O)C(C)(C)NC(=O)[C@@H](N)Cc2c[nH]cn2)[C@@H](C)O)[C@@H](C)O)C(=O)N[C@@H](CCC(N)=O)C(=O)N[C@@H](C)C(=O)N[C@@H](C)C(=O)N1)C(=O)N[C@@H](CCCCNC(=O)[C@H]1O[C@@H](OCCCCCCCCCCCCCCCC(=O)O)[C@H](O)[C@@H](O)[C@@H]1O)C(=O)N[C@@H](Cc1c[nH]c2ccccc12)C(=O)N[C@@H](CC(C)C)C(=O)N[C@@H](CC(C)C)C(=O)N[C@@H](CCC(N)=O)C(=O)N[C@H](C(N)=O)[C@@H](C)O [EU-A1871]
EC50 (human GLP-1R; EC50 cAMP GLP-1 R (pM) 0.1% BSA, Table 5, 0.1% BSA): 162 pM | EC50 (GCGR; EC50 cAMP glucagon R (pM) 0.1% BSA, Table 5, 0.1% BSA): 461 pM

CCCCCCCCCCCCO[C@@H]1O[C@H](C(=O)NCCCC[C@H](NC(=O)[C@@H](NC(=O)[C@H](Cc2ccccc2)NC(=O)[C@H](CCC(=O)O)NC(=O)[C@@H]2CCCCNC(=O)CC[C@H](NC(=O)[C@H](CC(=O)O)NC(=O)[C@H](CC(C)C)NC(=O)[C@H](Cc3ccc(O)cc3)NC(=O)[C@H](CCCCN)NC(=O)[C@H](CO)NC(=O)[C@H](Cc3ccc(O)cc3)NC(=O)[C@H](CC(=O)O)NC(=O)[C@H](CO)NC(=O)[C@@H](NC(=O)[C@H](Cc3ccccc3)NC(=O)[C@@H](NC(=O)CNC(=O)[C@H](CCC(N)=O)NC(=O)C(C)(C)NC(=O)[C@@H](N)Cc3c[nH]cn3)[C@@H](C)O)[C@@H](C)O)C(=O)N[C@@H](CCC(N)=O)C(=O)N[C@@H](C)C(=O)N[C@@H](C)C(=O)N2)[C@@H](C)CC)C(=O)N[C@@H](Cc2c[nH]c3ccccc23)C(=O)N[C@@H](CC(C)C)C(=O)N[C@@H](CC(C)C)C(=O)N[C@@H](CCC(N)=O)C(=O)N[C@H](C(N)=O)[C@@H](C)O)[C@@H](O)[C@H](O)[C@H]1O [analogue 3]
EC50 (GCGR; cAMP, CHO cells, 0.1% BSA containing buffers, read-out: pEC50 (SE) huGCGR (converted)): 28.8 pM

exendin-4 [reference compound]
Fold Improvement GLP-1R (human GLP-1R): 1 | fold improvement on replacing BSA (0.1%) with OVA (0.1%) (human GLP-1R): negligible
